Values joined by “and” are separate entries in the source; they are usually repeats but may differ in a detail not shown here. Equal values may be shown once. Non-standard residues stand in square brackets, D forms with d. Residues, ends and D or L forms follow the SMILES beside them. *: point of attachment. Dolaproine = CO[C@@H]([C@@H]1CCCN1)[C@@H](C)C(=O)O; Dil = CC[C@H](C)[C@H](NC)[C@@H](CC(=O)O)OC; X1 = C[C@@H](N*)[C@@H](O)c1ccccc1; NMeV = CN[C@H](C(=O)O)C(C)C
How the values were obtained:
[1] = test system: A549; assay: Cytotoxicity, Alamar Blue assay; assay type: cell-based, human; conditions: 72 h drug exposure, one value per biological replicate
Method: (§1) Cells were plated in 96-well plates and exposed to a drug concentration range for 72 h. Alamar Blue was added to the cells and allowed to incubate for 2–4 h at 37 °C. Plates were analyzed using a plate reader with fluorescence measured at 560 nm. Fractional survival was normalized to untreated control cell fluorescent values. Drug IC50 was calculated using Prism software (GraphPad, La Jolla, CA). Cell viability, cytotoxicity and apoptosis were also measured by ApoTox-Glo Triplex Assay (Promega).

[2] = test system: HCT116; assay: Cytotoxicity, Alamar Blue assay; assay type: cell-based, human; conditions: 72 h drug exposure, one value per biological replicate
Method: as §1

[3] = test system: MOC2 tumors; assay: Orthotopic tumor CyTOF analysis of immune infiltrate; assay type: in vivo, C57BL/6 mice; set-up: Immune cell quantification: M2 / CyTOF cell quantification, Immune cell quantification: CD4+ / CyTOF cell quantification, Immune cell quantification: M1 / CyTOF cell quantification, Immune cell quantification: M-MDSC / CyTOF cell quantification, Immune cell quantification: PMN-MDSC / CyTOF cell quantification, Immune cell quantification: Eosinophils / CyTOF cell quantification, Immune cell quantification: B cells: unit not given here
Method: 6-week-old C57BL/6 female mice were implanted with 50,000 MOC2 cells into the tongue. […] […] Tissues were incubated for 15 min at 37 °C and mechanically digested using the gentle MACs Octo Dissociator. Digested samples were then passed through a 100-µm strainer to acquire a single-cell. For viability staining, cells were washed in PBS and stained with Cell-ID Cisplatin (DVS Sciences) to a final concentration of 5 μM for 5 min at room temperature. Cisplatin was quenched when cells were washed and stained with the antibody cocktail. Antibodies were prepared in Maxpar cell staining buffer (PBS with 2 mM EDTA, 0.1% BSA, 0.05% NaN3) and incubated with cells for 15 min at room temperature. […] Antibodies (clone in parenthesis) used for CyTOF included B220 (RA3-6B2), CD117(2B8), CD11c (N418), CD25 (3C7), CD4 (RM4-5), CD45 (30-F11), CD8a (53-6.7), MHC-II (M5/114.15.2), NKP46 (29A1.4), TCRb (H57-597) from Fluidigm. Antibodies CD103 (2E7), CD115 (AFS98), CD11b (M1/70), CD19 (6D5), CD23 (B3B4), CD3 (145-2C11), CD64 (X54-5/7.1), F4/80 (BM8), FCeRI (Mar-1), FR4 (TH6), Ly6C (HK1.4), Ly6G (1A8), NK1.1 (PK136) from BioLegend and antibody Siglec-F (1RNM44N) from ebioscience. All antibodies were validated by the supplier and used at a 1:100 dilution. Cells were washed with staining buffer and pelleted. Before acquiring, cells were resuspended in 0.1× dilution of EQ Four Element Calibration beads (Fluidigm) and filtered through a 35 μm nylon mesh filter. Cells were acquired on a Helios CyTOF Mass Cytometer (Fluidigm) at an event rate of 200 events/s or less. Data was normalized using Matlab-based normalization software based on the EQ bead-removal. Prior to analysis, samples were subsampled to the lowest number of events and all counts were normalized to the same number of total events, 2324. To detect clusters of cells with a similar expression of surface markers in CyTOF, single cells were gated and clustered using unsupervised dimensionality reduction algorithm optimal t-Distributed Stochastic Neighbor Embedding (opt-SNE) algorithm in OMIQ data analysis software (www.omiq.ai) (530 iterations, Perplexity 30, and Theta 0.5)[51].
Supplementary Figure 8: CyTOF analysis of tumor immune infiltrates. a)
populations identified with opt-SNE. b) MOC2 murine tumors orthotopically implanted
Tumors harvested on day 11, analyzed by CyTOF,
provided in Source Data file.

[4] = test system: MOC1 tumors; assay: Subcutaneous tumor therapy, ADC monotherapy, mouse survival; assay type: in vivo, C57BL/6 mice
Method: MOC1, B16, LL/2, and MC38 tumor cells were injected subcutaneously into the hindlimbs of 6-week-old female C57BL/6 albino mice in 100 µl of 1:1 Matrigel (BD) and PBS solution. Fractionated IR was delivered focally to the tumor-bearing hindlimbs (3 Gy to MC38 tumors and 5 Gy to LL/2 and B16 tumors) as indicated in figure legends using a PXI X-RAD 225 XL irradiator at maximal dose rate of 3 Gy/min with a beam-conditioning aluminum filter (Precision X-ray Irradiation). For RAG1 KO studies, 6-week-old female Rag1^tm1Mom mice were injected subcutaneously with tumor cells in their hindlimbs (Jackson Labs). For CD8 depletion studies, mice were i.p. injected with anti-CD8 (BioXCell #BE0117) at 10 mg/kg on days −6, −5 and −4 tumor cell implant and then weekly starting on day after tumor cells were injected or control antibody. […] Tumor volumes were measured and calculated using the formula as ½ * length * width^2. Mice were sacrificed when tumor volume reached >1500 mm^3, maximal tumor volume approved on our protocol for subcutaneous tumors.

CC[C@H](C)[C@@H]([C@@H](CC(=O)N1CCC[C@H]1[C@H](OC)[C@@H](C)C(=O)N[C@H](C)[C@@H](O)c1ccccc1)OC)N(C)C(=O)[C@@H](NC(=O)[C@@H](NC)C(C)C)C(C)C [MMAE, monomethyl auristatin E] (H-[NMeV]V[Dil][Dolaproine]-X1)
IC50 [1]: 0.559 nM and 0.513 nM
IC50 [2]: 0.343 nM and 0.431 nM and 0.548 nM and 1.43 nM and 1.52 nM and 1.35 nM

CDX3379-MMAE: anti-HER3 antibody CDX3379 with 4 MMAE per antibody via MC-VC-PABC linker, labeled with Cy5
Immune cell quantification: CD8+ ([3]; MOC2 tumors, 2.5 nmoles drug on day 7, CyTOF on day 11, counts normalized to 2324 total events (percent of counts as in Supp. Fig. 8b), one value per tumor, untreated 0.26, 1.08, 0.73, 0.77): 0.86 and 0.95
Immune cell quantification: T regs ([3]; MOC2 tumors, 2.5 nmoles drug on day 7, CyTOF on day 11, one value per tumor, untreated 0.52, 0.82, 0.90, 0.65): 1.64 and 1.12 and 1.68
CyTOF cell quantification, Immune cell quantification: B cells ([3]; Tumor #1): 1.59
CyTOF cell quantification, Immune cell quantification: CD4+ ([3]; Tumor #1): 3.49
CyTOF cell quantification, Immune cell quantification: Eosinophils ([3]; Tumor #1): 19.75
CyTOF cell quantification, Immune cell quantification: M1 ([3]; Tumor #1): 1.46
CyTOF cell quantification, Immune cell quantification: M-MDSC ([3]; Tumor #1): 5.98
CyTOF cell quantification, Immune cell quantification: PMN-MDSC ([3]; Tumor #1): 55.25
CyTOF cell quantification, Immune cell quantification: B cells ([3]; Tumor #2): 0.69
CyTOF cell quantification, Immune cell quantification: CD4+ ([3]; Tumor #2): 3.53
CyTOF cell quantification, Immune cell quantification: Eosinophils ([3]; Tumor #2): 13.68
CyTOF cell quantification, Immune cell quantification: M1 ([3]; Tumor #2): 0.69
CyTOF cell quantification, Immune cell quantification: M-MDSC ([3]; Tumor #2): 5.25
CyTOF cell quantification, Immune cell quantification: PMN-MDSC ([3]; Tumor #2): 63.34
CyTOF cell quantification, Immune cell quantification: B cells ([3]; Tumor #3): 1.94
CyTOF cell quantification, Immune cell quantification: CD4+ ([3]; Tumor #3): 1.98
CyTOF cell quantification, Immune cell quantification: Eosinophils ([3]; Tumor #3): 11.88
CyTOF cell quantification, Immune cell quantification: M1 ([3]; Tumor #3): 0.43
CyTOF cell quantification, Immune cell quantification: M-MDSC ([3]; Tumor #3): 4.09
CyTOF cell quantification, Immune cell quantification: PMN-MDSC ([3]; Tumor #3): 66.35
CyTOF cell quantification, Immune cell quantification: B cells ([3]; Tumor #4): 2.11
CyTOF cell quantification, Immune cell quantification: CD4+ ([3]; Tumor #4): 4.39
CyTOF cell quantification, Immune cell quantification: Eosinophils ([3]; Tumor #4): 27.02
CyTOF cell quantification, Immune cell quantification: M1 ([3]; Tumor #4): 0.47
CyTOF cell quantification, Immune cell quantification: M-MDSC ([3]; Tumor #4): 2.54
CyTOF cell quantification, Immune cell quantification: PMN-MDSC ([3]; Tumor #4): 51.89
Immune cell quantification: M2 ([3]; mouse, in vivo): 1.20 and 2.19 and 1.25 and 1.42
tumor immune populations changed (CyTOF) ([3]; orthotopic MOC2 tumors, single 2.5 nmole i.v. injection): regulatory T cells, dendritic cells and NK cells that were upregulated
anti-tumor activity as measured by mouse survival [4]: modest anti-tumor activity

— PMC9256669, “Monomethyl auristatin antibody and peptide drug conjugates for trimodal cancer chemo-radio-immunotherapy” (Nature Communications, 2022)
